Where two headings read alike, the source gives them in different places.
Experiments:
[1] = Solubility (general statement); format: physicochemical; settings: aqueous
[2] = Human pharmacokinetic study, Example 4 Arm II (single dose, crossover); format: in vivo; settings: human, in vivo
Experimental: Formulation C5-12 and a second formulation were tested in Arm II of the study. Adult male and female subjects (N=30 for combined Arm I and Arm II studies) in general good health were selected to participate in the study according to the selection criteria. Subjects meeting the selection criteria were randomly assigned to one of the Regimen sequences as shown below in Table 4-A.
Study drug was administered as provided below in Table 4-B.
Each study regimen was taken orally with approximately 240 mL of water approximately 30 minutes after the start of standardized breakfast. Study regimens were administered orally in the morning on Study Day 1 of each period. For Regimen A the evening dose of the Single Tablet was taken orally with approximately 240 mL of water approximately 30 minutes after the start of the evening snack. Serial blood samples for pharmacokinetic analysis were collected 72 hours after dosing in each period.
The data presented in Tables 4-C through 4-G are preliminary data and are subject to database lock and final data verification.

[3] = Human pharmacokinetic study, Example 5 Arm I (single dose, replicated crossover); format: in vivo; settings: single dose, non-fasting
Experimental: (§1) A Phase 1, non-fasting, open-label, two-arm, four-period, randomized, crossover study was conducted to compare and characterize the pharmacokinetics of (i) Triple Tablet when co-administered with Single Tablet, and (ii) Formulation C5-12 as discussed below. Part 1 was a single dose, two-treatment, randomized, four period, two sequence replicated crossover study with 88 subjects. Doses in the four periods were separated by at least 10 days. Part 2 was a multiple-dose, two-treatment, two period, randomized crossover study with 66 subjects. Dosing in each period was 14 days and doses in the two periods were separated by at least 10 days.
(§2) Adult male and female subjects in general good health were selected to participate in the study according to the selection criteria. Subjects meeting the selection criteria were randomly assigned to one of the sequences of Regimens A and B (four sequences for Arm I and two sequences for Arm II) as shown below in Table 5-A.
(§3) Study drug was administered as provided below in Table 5-B.
(§4) Each study regimen was taken orally with approximately 240 mL of water approximately 30 minutes after the start of standardized breakfast. Study regimens were administered orally in the morning on Study Day 1 of each period. Serial blood samples for pharmacokinetic analysis were collected 72 hours after dosing in each period.
Tables 5-C, 5-D, 5-E, and 5-F below report the Arm I pharmacokinetic data for Formulation C5-12 (separately reported for each of Compounds 1, 2, 3, and 4). Table 5-G presents the results of a relative bioavailability and 90% confidence interval analysis of the pharmacokinetic data for Formulation C5-12 relative to the reference regimen. The data presented in Tables 5-C through 5-G are preliminary data and are subject to database lock and final data verification by the statistician.

[4] = Human pharmacokinetic study, Example 4 Arm III (14-day multiple dose, steady state); format: in vivo
[5] = Human pharmacokinetic study, Example 5 Arm II (multiple dose, crossover); format: in vivo; settings: in vivo
Experimental: as §1, §2, §3, §4

[6] = Sink Conditions dissolution testing of Formulation C5-12; format: physicochemical; settings: N = 6
Experimental: The release profiles of Formulation C5-12 of Example 1 were evaluated in a Sink Conditions dissolution study. The study was conducted in 900 mL of dissolution medium using a standard USP dissolution Apparatus 2 (paddle) operating at 100 RPM at 37±0.5° C. The dissolution medium was a 0.05 M sodium phosphate buffer pH 6.8 with 15 mM cTAB as a surfactant.

[7] = Regimen B (reference regimen): two Triple Tablets + one Single Tablet morning, one Single Tablet evening, N = 171
[8] = Formulation C5-12, Day 14 versus Day 1
[9] = human, in vivo, oral, 3 Formulation C5-12 tablets daily, three Formulation C5-12 tablets daily for 14 days, non-fasting, Day 14, N = 14
[10] = three Formulation C5-12 tablets daily for 14 days, non-fasting, Day 1, N = 14

SMILES: COC(=O)N[C@H](C(=O)N1CCC[C@H]1C(=O)Nc1ccc([C@@H]2CC[C@@H](c3ccc(NC(=O)[C@@H]4CCCN4C(=O)[C@@H](NC(=O)OC)C(C)C)cc3)N2c2ccc(C(C)(C)C)cc2)cc1)C(C)C [Compound 2]
- Solubility [1]: low solubility
- AUCt, geometric mean ([2]; both): 1510 ng·h/mL
- AUC∞, geometric mean ([2]; both): 1670 ng·h/mL
- Cmax, geometric mean ([2]; both): 117 ng/mL
- Tmax ([2]; both): 5.2 h
- t1/2 ([2]; both): 23.2 h
- C24, arithmetic mean, % CV ([2]; both, 24 h): (19.4, 29) ng/mL
- C24, geometric mean ([2]; both, 24 h): 18.7 ng/mL
- AUCt, arithmetic mean, % CV [2]: (1560, 25) ng · h/mL
- AUC∞, arithmetic mean, % CV [2]: (1740, 29) ng · h/mL
- Cmax, arithmetic mean, % CV [2]: (122, 31) ng/mL
- Relative bioavailability, AUCinf, point estimate [2]: 1.022
- Relative bioavailability, Cmax, point estimate [2]: 1.038
- half-life ([3]; both sexes, human, blood, oral, 3 film-coated Formulation C5-12 tablets, Regimen A (C5-12): three film-coated Formulation C5-12 tablets, N = 172): 37.9 h
- AUC(0-t) ([3]; both sexes, human, blood, oral, 3 film-coated Formulation C5-12 tablets, Regimen A (C5-12): three film-coated Formulation C5-12 tablets, N = 172, read-out: AUCt, geometric mean): 1660 ng·h/mL
- AUC(0-inf) ([3]; both sexes, human, blood, oral, 3 film-coated Formulation C5-12 tablets, Regimen A (C5-12): three film-coated Formulation C5-12 tablets, N = 172, read-out: AUC∞, geometric mean): 1800 ng·h/mL
- Tmax ([3]; both sexes, human, blood, oral, 3 film-coated Formulation C5-12 tablets, Regimen A (C5-12): three film-coated Formulation C5-12 tablets, N = 172, read-out: Tmax, first value (geometric mean)): 5 h
- AUC(0-t) ([3]; both sexes, human, blood, oral, Regimen B (reference regimen): two Triple Tablets + one Single Tablet morning, one Single Tablet evening, N = 171, read-out: AUCt, geometric mean): 1630 ng·h/mL
- AUC(0-inf) ([3]; both sexes, human, blood, oral, Regimen B (reference regimen): two Triple Tablets + one Single Tablet morning, one Single Tablet evening, N = 171, read-out: AUC∞, geometric mean): 1760 ng·h/mL
- Tmax ([3]; both sexes, human, blood, oral, Regimen B (reference regimen): two Triple Tablets + one Single Tablet morning, one Single Tablet evening, N = 171, read-out: Tmax, first value (geometric mean)): 5 h
- Cmax, geometric mean ([3]; Regimen A (C5-12): three film-coated Formulation C5-12 tablets, N = 172): 124 ng/mL
- Cmax, geometric mean [3, 7]: 131 ng/mL
- t1/2 [3, 7]: 39.2 h
- AUC24, RATIO [4, 8]: 1.34
- C24, RATIO [4, 8]: 1.72
- Cmax, RATIO [4, 8]: 1.10
- Tmax ([4]; human, in vivo, oral, 3 Formulation C5-12 tablets daily, three Formulation C5-12 tablets daily for 14 days, non-fasting, Day 1, N = 14): 5.5 h
- concentration at 24 h ([4]; human, in vivo, oral, 3 Formulation C5-12 tablets daily, three Formulation C5-12 tablets daily for 14 days, non-fasting, Day 1, N = 14, read-out: C24, geometric mean): 23.4 ng/mL
- Tmax [4, 9]: 5.6 h
- half-life [4, 9]: 29.8 h
- AUC ([4]; human, in vivo, oral, 3 Formulation C5-12 tablets daily, three Formulation C5-12 tablets daily for 14 days, non-fasting, Day 14, N = 14, read-out: AUC24, geometric mean): 1720 ng·h/mL
- concentration at 24 h ([4]; human, in vivo, oral, 3 Formulation C5-12 tablets daily, three Formulation C5-12 tablets daily for 14 days, non-fasting, Day 14, N = 14, read-out: C24, geometric mean): 40.2 ng/mL
- Cmax ([4]; human, in vivo, oral, 3 Formulation C5-12 tablets daily, three Formulation C5-12 tablets daily for 14 days, non-fasting, Day 14, N = 14, read-out: Cmax, geometric mean): 135 ng/mL
- AUC24, geometric mean [4, 10]: 1280 ng·h/mL
- Cmax, geometric mean [4, 10]: 123 ng/mL
- β ([4]; three Formulation C5-12 tablets daily for 14 days, non-fasting, Day 14, N = 14): 0.023 h⁻¹
- Exposures versus the reference regimen [5]: bioequivalent
- Relative bioavailability, AUC24, point estimate [5]: 1.098
- Relative bioavailability, AUCt, point estimate [5]: 1.091
- Relative bioavailability, Cmax, point estimate [5]: 1.087
- % Released ([6]; 1 hour, 900 mL 0.05 M sodium phosphate buffer pH 6.8, 15 mM cTAB, USP Apparatus 2, 100 RPM, 37 °C): 55%
- % Released ([6]; 4 hours, pH 6.8 buffer, 15 mM cTAB): 98%
- % Released ([6]; 6 hours, pH 6.8 buffer, 15 mM cTAB): 99%
- % Released ([6]; 8 hours, pH 6.8 buffer, 15 mM cTAB): 103%
- % Released ([6]; 12 hours, pH 6.8 buffer, 15 mM cTAB): 102%
- % Released ([6]; 16 hours, pH 6.8 buffer, 15 mM cTAB): 102%

Reference: patent US10105365B2, “Solid antiviral dosage forms” (AbbVie Inc., priority 2014, dated 2018)
